Among the data in US11059830B2, “Compounds that participate in cooperative binding and uses thereof” (Revolution Medicines, Inc., priority 2015, dated 2021) are IC50 values, retold here.

The target in this test is FKBP12 (Homo sapiens (Human), UniProt P62942). Description: AlphaLISA FKBP12 binding: inhibition of binding of biotinylated FK506 to FLAG tagged FKBP12. The settings on record: read-out: Binding affinity to FKBP12 (by displacement of FK506). From the text: The binding of compounds of the invention to FKBP12 can be determined using the following protocol.
This protocol utilizes Perkin Elmers AlphaLISA technology platform to detect FKBP binders by measuring the inhibition of binding of biotinylated FK506 to FLAG tagged FKBP12.
10×TBST Buffer (Boston BioProducts IBB-181), Biotinylated FK506 (in-house), FLAG tagged FKBP (in-house); anti-FLAG Donor beads (Perkin Elmer AS103) and Streptavidin Acceptor beads (Perkin Elmer AL125); Compounds in DMSO (in-house), FK506.
Experimental Protocol/Description of Assay: Add 20 uL of 12.5 nM FKBP-FLAG working stock to each well of the 96-well plate. Add 1 uL of test compound (100% DMSO) to each well of the plate using the Janus MTD head and P20 tips (except control wells). Add 1 uL of DMSO to negative control wells and 1 uL of 50 uM FK506 solution to positive control wells. In the dark, add 20 uL of combined Donor/Acceptor beads to each well. Incubate in the dark for 30 minutes at room temperature. In the dark, add 10 uL of 5 nM biotinylated FK506 working stock to each well. Incubate in the dark for 60 minutes at room temperature. Protect plate from light until reading on Biotek Synergy2 Plate Reader; Alphalisa 96-well protocol (680 excitation/615 emission).
Background: Alpha assays give light when donor and acceptor beads are brought close together.

Chain of FKBP12 (P62942 whole entry): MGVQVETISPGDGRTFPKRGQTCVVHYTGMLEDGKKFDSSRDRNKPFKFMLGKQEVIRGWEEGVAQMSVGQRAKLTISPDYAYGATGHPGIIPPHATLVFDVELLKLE

`CC[C@H](Cc1ccccc1)[C@@H]1/C=C/C/C=C/C[C@@H](C)[C@H](O)[C@@H](C)[C@@H]2CC[C@@H](C)C(=O)C(O)(O2)C(=O)N2CCCC[C@H]2C(=O)O1` [Compound 2]: the IC50 is 1.5 nM.
